Laboratory results as given in US20190175728A1, “NUCLEIC ACID-ANTIGEN PEPTIDE CONJUGATE” (NAPAJEN PHARMA, INC., priority 2017, published 2019).
No end group written: not given here.

Tests used:
[1] = test system: OVA257-264 presenting cells (CFSE^high spleen cells); test: In vivo CTL assay; design: species or system C57BL/6J mice; conditions: target cells given day 7, counted after 24 hours
Method: SPG/dA40(S)-OVA257-264 (20, 100, 500 ng in the amount of OVA257-264) and CpG-dA40(S)/SPG (30 μg in the amount of CpG-dA) were intradermally administered to C57BL/6J mice.
On day 7 of administration, spleen cells were provided according to the following procedure. Spleen cells excised from normal C57BL/6J mice were treated with 10 μg/ml of OVA257-264 at 37° C. for 90 minutes. Thereafter, the spleen cells were washed three times with PBS, and the spleen cells were labeled with 5 μM carboxyfluorescein succinimidyl ester (CFSE); Invitrogen, Carlsbad, Calif.). Further, spleen cells not treated with OVA257-264 were similarly labeled with CFSE (0.5 μM). The labeled cells were washed three times with PBS. The spleen cells treated with OVA257-264 (CFSE^high) and the spleen cells not treated with OVA257-264 (CFSE^low) were mixed so that the number of the treated spleen cells was equal to the number of the untreated spleen cells. […] After that, the spleen cells were removed from the mice, and the CFSE-labeled cells were counted by flow cytometry.
OVA257-264 presenting cells were not observed when the dose of OVA257-264 was 100 ng/head or more. […] The difference in ability of inducing CTL reaction between SPG/dA40(S)-OVA257-264 and OVA257-264-click-dA40(S)/SPG was consistent with the result of Example 5 in which the antigen presenting ability was evaluated.

[2] = biological target: T1, murine endoplasmic reticulum aminopeptidase (Mus musculus, UniProt Q9EQH2); test: Cleavage of dA40(S)-peptide conjugate by endoplasmic reticulum aminopeptidase (polyacrylamide gel electrophoresis); format: biochemical; conditions: conjugate 1.5 μM, aminopeptidase 0.5 μg/ml, 25 mM Tris buffer pH 8.0, 37° C., 18 hours
T1 construct: purchased R & D Systems 2500-ZN
T1 sequence (Q9EQH2 1-930): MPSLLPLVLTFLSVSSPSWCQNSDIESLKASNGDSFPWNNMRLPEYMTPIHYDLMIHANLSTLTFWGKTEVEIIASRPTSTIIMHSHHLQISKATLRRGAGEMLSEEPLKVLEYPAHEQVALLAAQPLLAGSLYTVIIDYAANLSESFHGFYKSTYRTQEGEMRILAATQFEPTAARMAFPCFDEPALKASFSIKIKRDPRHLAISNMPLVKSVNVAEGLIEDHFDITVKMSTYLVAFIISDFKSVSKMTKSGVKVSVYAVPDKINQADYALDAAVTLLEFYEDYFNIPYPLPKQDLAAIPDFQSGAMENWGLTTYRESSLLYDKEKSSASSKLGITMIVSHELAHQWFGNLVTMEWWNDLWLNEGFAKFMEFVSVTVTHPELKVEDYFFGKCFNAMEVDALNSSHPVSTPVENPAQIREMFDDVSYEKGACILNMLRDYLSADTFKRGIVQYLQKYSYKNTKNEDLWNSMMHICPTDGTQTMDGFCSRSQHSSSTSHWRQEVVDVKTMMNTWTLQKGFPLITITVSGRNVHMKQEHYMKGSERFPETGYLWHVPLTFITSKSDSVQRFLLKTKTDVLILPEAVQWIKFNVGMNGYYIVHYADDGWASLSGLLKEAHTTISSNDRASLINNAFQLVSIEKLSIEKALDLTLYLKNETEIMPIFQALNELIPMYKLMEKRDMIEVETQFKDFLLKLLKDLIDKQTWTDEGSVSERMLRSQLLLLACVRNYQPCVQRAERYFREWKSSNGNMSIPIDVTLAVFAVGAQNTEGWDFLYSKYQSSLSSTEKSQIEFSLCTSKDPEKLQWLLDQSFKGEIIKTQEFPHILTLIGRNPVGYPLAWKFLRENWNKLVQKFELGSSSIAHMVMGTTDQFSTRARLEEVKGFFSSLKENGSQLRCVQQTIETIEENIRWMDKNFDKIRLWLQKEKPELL
Method: Each of the dA40(S)-peptide conjugates (1.5 μM) and murine endoplasmic reticulum aminopeptidase (0.5 μg/ml) (R & D Systems catalog Number 2500-ZN) were added to a 25 mM Tris buffer (pH 8.0) and the mixture was incubated at 37° C. for 18 hours. After completion of the reaction, polyacrylamide gel electrophoresis was carried out to observe the state of release from the dA40(S)-peptide conjugate.
In FIG. 2, pep(C)-dA40(S) represents a dA40(S)-peptide conjugate obtained by using peptide 1, dA40(S)-(C)pep represents a dA40(S)-peptide conjugate obtained by using peptide 2, dA40(S)-(C)pep long represents a dA40(S)-peptide conjugate obtained by using peptide 3, and dA40(S)-(C)pep long miss (L→K) represents a dA40(S)-peptide conjugate obtained by using peptide 4. […] Aminopeptidase is one of the enzymes that trim antigen peptides to present the antigen peptides to MHC. Accordingly, it is important for antigen presentation using the dA40(S)-peptide conjugate that even in the case of the peptide in which polydeoxyadenine is bonded to the N-terminal cysteine, the C-terminal side is composed of the hydrophobic amino acid residue. This fact was confirmed.

[3] = test system: macrophages recovered from the peritoneal cavity; test: Antigen presenting ability of dA40(S)-peptide conjugates, fluorescence microscopy after anti-OVA257-264/H-2Kb PE staining; format: cell-based, C57BL/6J mice; conditions: conjugate 10 μM, 18 hours, 1.5×10^5 cells/well
Method: (§1) 3 ml of thioglycollate medium was administered to the peritoneal cavity of C57BL/6J mice 3 days later, macrophages were recovered from the peritoneal cavity. The resulting macrophages were seeded in 48 wells (1.5×10^5 cells/well), and further each of the dA40(S)-peptide conjugates was added to the wells at a concentration of 10 μM. […], the fixed cells were stained with Anti-Mouse OVA257-264 (SIINFEKL) peptide bound to H-2Kb PE, and the resulting cells were subjected to fluorescence microscopic observation.
In FIG. 3, pep(C)-dA40(S) represents a dA40(S)-peptide conjugate obtained by using peptide 1, dA40(S)-(C)pep represents a dA40(S)-peptide conjugate obtained by using peptide 2, dA40(S)-(C)pep long represents a dA40(S)-peptide conjugate obtained by using peptide 3, and dA40(S)-(C)pep long miss (L→K) represents a dA40(S)-peptide conjugate obtained by using peptide 4.

[4] = test system: macrophages recovered from the peritoneal cavity; test: Antigen presenting ability of SPG/dA40(S)-OVA257-264, flow cytometry after anti-OVA257-264/H-2Kb PE staining; format: cell-based, C57BL/6J mice; conditions: concentration of OVA257-264 5 μg/ml, 18 hours
Method: as §1, with “SPG/dA40(S)-OVA257-264, dA40(S)-OVA257-264, or OVA257-264-click-dA40(S)/SPG” for “each of the dA40(S)-peptide conjugates”, “added” for “added to the wells”, “OVA257-264 of 5 μg/ml.” for “10 μM.”, “analyzed by flow cytometry.” for “subjected to fluorescence microscopic observation.”

[5] = biological target: T2, dA40(S)-peptide conjugate obtained by using peptide 1
T2 chain: SIINFEKLC

[6] = biological target: T3, dA40(S)-peptide conjugate obtained by using peptide 2
T3 chain: CSIINFEKL

[7] = biological target: T4, dA40(S)-peptide conjugate obtained by using peptide 3
T4 chain: CQLESIINFEKL

Question: With “SPG/dA40(S)-OVA257-264: complex of dA40(S)-OVA257-264 and schizophyllan (SPG) (SIINFEKL; also: dA40(S) conjugate, site not given here, complex with schizophyllan (SPG); UniProt P01012 258-265, looked up, fragment)” as the molecule, how does the “decrease in OVA257-264 presenting cells (CFSE^high spleen cells)” value ([1]; intradermal, 20, 100, 500 ng OVA257-264, together with CpG-dA40(S)/SPG 30 μg) read?
Answer: observed depending on the dose of OVA257-264

Question: And the “dose of OVA257-264 at which OVA257-264 presenting cells were not observed” value ([1]; intradermal, together with CpG-dA40(S)/SPG 30 μg)?
Answer: ≥ 100 ng/head

Question: How did the “state of release from the dA40(S)-peptide conjugate after enzyme treatment” value [2] turn out when “dA40(S)-(C)pep long miss (L→K): dA40(S) disulfide-bonded via LC-SPDP linker to N-terminal cysteine of peptide 4, CSIINFEKK (SEQ ID NO: 4) (cyclised or stapled)” was run?
Answer: not recognized by the enzyme

Question: And the “fluorescence of OVA257-264 (SIINFEKL) bound to H-2Kb (antigen presentation)” value [3]?
Answer: antigen presentation hardly occurred

Question: With “pep(C)-dA40(S): dA40(S) disulfide-bonded via LC-SPDP linker to C-terminal cysteine of peptide 1, SIINFEKLC (SEQ ID NO: 1) (cyclised or stapled)” as the molecule, how does the “state of release from the dA40(S)-peptide conjugate after enzyme treatment” value [2] read?
Answer: no change was observed in the electrophoretic distance

Question: What about the “fluorescence of OVA257-264 (SIINFEKL) bound to H-2Kb (antigen presentation)” value [3] of the same molecule?
Answer: Very weak fluorescence

Question: Which “antigen (OVA257-264) presentation level” value [4] does the source give for “dA40(S)-OVA257-264: conjugate of dA40(S) and ovalbumin antigen peptide OVA257-264 (SIINFEKL), prepared in the manner described in Example 1 (also: dA40(S) conjugate, site not given here; UniProt P01012 258-265, looked up, fragment)” here?
Answer: the same as that of SPG/dA40(S)-OVA257-264

B1: murine endoplasmic reticulum aminopeptidase (R & D Systems catalog Number 2500-ZN) (protein)
chain: DIESLKASNGDSFPWNNMRLPEYMTPIHYDLMIHANLSTLTFWGKTEVEIIASRPTSTIIMHSHHLQISKATLRRGAGEMLSEEPLKVLEYPAHEQVALLAAQPLLAGSLYTVIIDYAANLSESFHGFYKSTYRTQEGEMRILAATQFEPTAARMAFPCFDEPALKASFSIKIKRDPRHLAISNMPLVKSVNVAEGLIEDHFDITVKMSTYLVAFIISDFKSVSKMTKSGVKVSVYAVPDKINQADYALDAAVTLLEFYEDYFNIPYPLPKQDLAAIPDFQSGAMENWGLTTYRESSLLYDKEKSSASSKLGITMIVSHELAHQWFGNLVTMEWWNDLWLNEGFAKFMEFVSVTVTHPELKVEDYFFGKCFNAMEVDALNSSHPVSTPVENPAQIREMFDDVSYEKGACILNMLRDYLSADTFKRGIVQYLQKYSYKNTKNEDLWNSMMHICPTDGTQTMDGFCSRSQHSSSTSHWRQEVVDVKTMMNTWTLQKGFPLITITVSGRNVHMKQEHYMKGSERFPETGYLWHVPLTFITSKSDSVQRFLLKTKTDVLILPEAVQWIKFNVGMNGYYIVHYADDGWASLSGLLKEAHTTISSNDRASLINNAFQLVSIEKLSIEKALDLTLYLKNETEIMPIFQALNELIPMYKLMEKRDMIEVETQFKDFLLKLLKDLIDKQTWTDEGSVSERMLRSQLLLLACVRNYQPCVQRAERYFREWKSSNGNMSIPIDVTLAVFAVGAQNTEGWDFLYSKYQSSLSSTEKSQIEFSLCTSKDPEKLQWLLDQSFKGEIIKTQEFPHILTLIGRNPVGYPLAWKFLRENWNKLVQKFELGSSSIAHMVMGTTDQFSTRARLEEVKGFFSSLKENGSQLRCVQQTIETIEENIRWMDKNFDKIRLWLQKEKPELL
Question: How did the “release of dA40(S) from the conjugate, polyacrylamide gel electrophoresis after enzyme treatment” value (from here on “release of dA40(S) from the conjugate”) [5] turn out when B1 was run?
Answer: no change was observed in the electrophoretic distance even when subjected to enzyme treatment

Question: What about the “release of dA40(S) from the conjugate” value [6] of the same molecule?
Answer: a band of dA40(S) was slightly observed after the enzyme treatment

Question: And the “release of dA40(S) from the conjugate” value [7]?
Answer: the peptide was almost completely released and a band of dA40(S) was observed
